# Experiments:
# [1] = tested on: MCF-7 cells; test: MTT cell viability assay, mammary carcinoma; type: cell-based; details: Homo sapiens, MCF7
# Protocol: (§1) Human cell lines were obtained from the American Type Culture Collection (ATCC, Manassas, VA, USA). Normal lung MRC-5 fibroblasts (ATCC® CCL-171™), SK-MES-1 lung cancer cells (ATCC® HTB-58™), and J82 bladder carcinoma cells (ATCC® HTB-1™) were grown as monolayers in Eagle’s minimum essential medium (MEM) with Earle’s salts, 2 mM L-glutamine, and 1.5 g/L sodium bicarbonate. Gastric epithelial AGS cells (ATCC® CRL-1739™) were grown as monolayers in Ham’s F-12 medium containing 1 mM L-glutamine and 1.5 g/L sodium bicarbonate. Promyelocytic leukemia HL-60 (ATCC® CCL-240™), colorectal adenocarcinoma HCT-15 (ATCC® CCL-225™), metastatic colorectal COLO205 (ATCC® CCL-222™), and breast cancer AU565 (ATCC® CRL-2351™, ER^−-HER2/neu^+) cells were grown in suspension in an RPMI-1640 medium containing 1 mM sodium pyruvate and 2.0 g/L sodium bicarbonate. Human breast cancer MCF-7 (ATCC® HTB-22™, ER^+-HER2/neu^−) and MDA-MB-231 (ATCC® HTB-26™, ER^−-HER2/neu^−) cells were grown as monolayers in DMEM medium. All media were supplemented with 10% heat-inactivated fetal bovine serum (HI-FBS), 100 IU/mL penicillin G, and 100 µg/mL streptomycin. Cells were maintained at 37 °C in a humidified incubator with 5% CO2.
# (§2) MRC-5, SK-MES-1, J82, and AGS cells were seeded at a density of 5 × 10^4 cells/mL in 96-well plates. COLO205, HCT-15, MCF-7, MDA-MB-231, and AU565 cells were seeded at 1 × 10^5 cells/mL, while HL-60 cells were plated at 3 × 10^5 cells/mL. A volume of 100 µL of the cell suspension was added to each well. After 24 h, the compounds were added in increasing concentrations (ranging from 0 to 100 µM), and cells were incubated for 24, 48, or 72 h. The compounds were dissolved in DMSO and diluted in complete medium to a final concentration of 0.5% DMSO. Cells treated with 0.5% DMSO in complete medium were used as viability controls (100%). Etoposide (98% purity, Sigma-Aldrich, St. Louis, MO, USA) was used as the reference compound. Each concentration was tested in quadruplicate, and each experiment was performed twice using independent cell preparations. At the end of the incubation period, cell viability was determined using the MTT reduction assay. The results were transformed into percentages relative to controls, and IC50 values were obtained graphically from the dose–response curves. Results are presented as IC50 values ± standard deviation (SD).
# [2] = tested on: MDA-MB-231 cells; test: MTT cell viability assay, mammary carcinoma; type: cell-based; details: Homo sapiens
# Protocol: as §1, §2
# [3] = tested on: AU565 cells; test: MTT cell viability assay, mammary carcinoma; type: cell-based, human; details: for IC50: Homo sapiens
# Protocol: as §1, §2
# [4] = tested on: COLO205 cells; test: LDH release assay; type: cell-based, human; details: COLO205, 0.5–5 μM, 24 h
# Protocol: (§3) COLO205 and HCT-15 cells were cultured at 2 × 10^4 cells/well in 96-well plates and incubated for 24 h. Afterwards, BA-C4-TPP^+Br^− was added in increasing concentrations (0.5, 1, 2.5, and 5 µM) for 24 h. Finally, the supernatant of each well was transferred to a new plate (10 µL/well), and the LDH reaction mix was added (100 µL/well). The plate was incubated for 20 min at room temperature, and the absorbance of each well was measured using a Varioskan® Flash plate reader (Thermo Scientific, Waltham, MA, USA) at 450 nm. All values are expressed as a percentage of LDH activity relative to cells incubated with Cell Lysis solution (provided in the kit) for 24 h.
# [5] = tested on: HCT-15 cells; test: LDH release assay; type: cell-based, human
# Protocol: as §3
# [6] = tested on: human cancer cell lines; test: MTT cell viability, summary over the human cancer cell lines; type: cell-based; details: summary statement
# Protocol: as §1, §2
structure (smiles),measurement,setting,value
"C=C(C)[C@@H]1CC[C@]2(C(=O)OCCCC[P+](c3ccccc3)(c3ccccc3)c3ccccc3)CC[C@]3(C)[C@H](CC[C@@H]4[C@@]5(C)CC[C@H](O)C(C)(C)[C@@H]5CC[C@]43C)[C@@H]12 [BA-C4-TPP^+Br^−, 4-Triphenylphosphoniobutyl 3β-hydroxylup-20(29)-en-28-oate bromide]",IC50,"[1]; MCF-7, 24 h",3880 ± 450 nM
same,IC50,"[1]; MCF-7, 48 h",950 ± 340 nM
same,IC50,"[2]; MDA-MB-231, 24 h",1700 ± 440 nM
same,IC50,"[2]; MDA-MB-231, 48 h",1010 ± 90 nM
same,increase in potency compared to non-modified BA scaffold,[3]; AU565 cells at 48 h,~15 fold
same,IC50,"[3]; AU565, 24 h",1660 ± 120 nM
same,IC50,"[3]; AU565, 48 h",600 ± 50 nM
same,LDH release,[4],no significant LDH release
same,LDH release,"[5]; HCT-15, 2.5 μM, 24 h, relative to Cell Lysis solution",18%
same,LDH release relative to control (DMSO),"[5]; HCT-15, 24 h",double the control (DMSO) value
same,IC50,"[6]; Homo sapiens, 48 and 72 h of treatment",< 1000 nM
same,increase in potency,"[6]; nine human cancer cell lines, relative to BA",over 100 fold
